Laboratory results as given in article PMC9023740, “Mucin-Type O-Glycosylation Proximal to β-Secretase Cleavage Site Affects APP Processing and Aggregation Fate” (Frontiers in Chemistry, 2022).

Each compound was assayed against T1, Recombinant human BACE-1 (rhBACE-1) (Homo sapiens, UniProt P56817) (assay: Proteolytic cleavage of APP (glyco)peptides by BACE-1, RP-HPLC peak integration). Conditions: 100 μM substrate, 50 nM rhBACE-1, 0.1 M sodium acetate pH 4.0, 24 h, 37°C, dark; RP-HPLC peak integration at 214 nm, averaged from two injections, SD <5%.
T1 construct: purchased R&D Systems #ES004 and #931-AS, respectively (so in the source)
Type: biochemical
Experimental: All APP-based substrates were prepared as 10 mM stocks in DMSO. Before proteolysis, the activity of BACE-1 was verified by the reaction with the fluorogenic BACE-1substrate Mca-[…](Dnp)RR-NH2 ([Koike et al., 1999]) as per the manufacturer’s instructions. For the proteolysis assay, APP-based substrates were diluted in BACE-1 activity buffer (0.1 M sodium acetate, pH 4.0) to the final assay concentration of 100 μM. BACE-1 was diluted to 50 nM final concentration. Reactions were incubated for 24 h at 37°C in the dark. After the incubation period, the enzyme cleavage solutions containing APP-based substrates and BACE-1 were analyzed using the analytical RP-HPLC method on the Aeris C18 column with 0.1% TFA in water (A) and 0.1% TFA in acetonitrile (B) as eluents and 0–60% B as the elution gradient over 30 min with a flow rate of 0.8 ml/min, and detection at 214 nm or the Vydac Denali C18 column with 0.1% TFA in water (A) and 0.1% TFA in acetonitrile (B) as eluents and 0–60% B as the elution gradient over 30 min with a flow rate of 1 ml/min, and detection at 214 nm. The identity of intact and cleaved (N- and C-terminal) fragments of (glyco)peptides in the absence and presence of BACE-1 (β-secretase) was confirmed by MALDI-TOF and their percentages were evaluated by the integration of the RP-HPLC peaks (averaged from two injections).
Glycosylation can alter substrate recognition and impact enzyme activity in either a positive (enhancing) or negative (inhibiting) manner ([Goettig, 2016]; [Goth et al., 2018]). The mucin-type O-linked glycosylation of a protein may not only affect its conformation but also affect its transport and localization in the cell ([Matsuura et al., 1989]; [Chen et al., 2002]). Proteases are highly regulated by post-translational modifications and drive fate, localization, and activity of many proteins ([Bond, 2019]). Certain mutations can also affect the subcellular localization of the cleavage event by crucial proteases and mediate a different cellular mechanism for the protein ([Haass et al., 1995]). […] Therefore, similar enzyme cleavage assays with BACE-1 were set up to explore the effect of the Swedish mutation, length of the amino acid sequence, glycan position and valency on the proteolytic susceptibility of 3–12. BACE1 produced two fragments upon cleavage of (glyco)peptides, for which yields were determined after 24 h treatment. The yields of intact peptide and fragments were evaluated by the RP-HPLC peaks integration (Table 3, and the Supplementary Material S20–S32).
3. Enzyme cleavage assays with APP (glyco)peptides 3-12 by RP-HPLC and MALDI-TOF MS
For the BACE1 enzyme cleavage assay, APP-based (glyco)peptide substrates were diluted in BACE1 activity buffer and incubated with BACE1 for 24 h at 37 °C in the dark. After the incubation period, the enzyme cleavage solutions containing APP-based (glyco)peptide substrates and BACE1 were analyzed using analytical RP-HPLC.
RP-HPLC gradient on Phenomenex Aeris Peptide C18 column (150 x 4.6 mm, 3.6 µm, 100Å):
Eluents were 0.1% TFA in water (A) and 0.1% TFA in acetonitrile (B). The elution gradient was 0-60%B in 30 minutes with a flow rate of 0.8 mL/min. Detection was at λ = 214 nm.
S*/T*= Ser(-α-GalNAc) 1/Thr(-α-GalNAc) 2
(a) APP665-680, 3 in activity buffer
(b) APP665-680 (3) + BACE1 in activity buffer […]

T1 sequence (P56817 46-457 limits assumed): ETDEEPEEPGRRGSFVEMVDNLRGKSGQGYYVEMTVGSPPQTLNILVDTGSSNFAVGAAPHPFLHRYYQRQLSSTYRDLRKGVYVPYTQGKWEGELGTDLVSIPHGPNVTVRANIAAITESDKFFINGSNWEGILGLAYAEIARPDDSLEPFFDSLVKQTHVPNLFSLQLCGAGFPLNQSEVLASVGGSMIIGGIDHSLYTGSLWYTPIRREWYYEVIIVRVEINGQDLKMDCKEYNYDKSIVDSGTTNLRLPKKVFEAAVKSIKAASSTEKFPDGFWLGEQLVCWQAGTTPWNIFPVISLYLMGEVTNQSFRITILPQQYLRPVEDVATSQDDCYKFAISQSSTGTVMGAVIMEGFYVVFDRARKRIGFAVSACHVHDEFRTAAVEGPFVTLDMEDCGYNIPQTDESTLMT

SMILES | BACE-1 activity, Cleaved (%) | BACE-1 activity, Recovered (%)
CC[C@H](C)[C@H](NC(=O)[C@@H](N)CCC(=O)O)C(=O)N[C@@H](CO)C(=O)N[C@@H](CCC(=O)O)C(=O)N[C@H](C(=O)N[C@@H](CCCCN)C(=O)N[C@@H](CCSC)C(=O)N[C@@H](CC(=O)O)C(=O)N[C@@H](C)C(=O)N[C@@H](CCC(=O)O)C(=O)N[C@@H](Cc1ccccc1)C(=O)N[C@@H](CCCNC(=N)N)C(=O)N[C@@H](Cc1c[nH]cn1)C(=O)N[C@@H](CC(=O)O)C(=O)N[C@@H](CO)C(=O)NCC(N)=O)C(C)C [compound 3] | 4.48 | 95.5
CC[C@H](C)[C@H](NC(=O)[C@@H](N)CCC(=O)O)C(=O)N[C@@H](CO[C@H]1O[C@H](CO)[C@H](O)[C@H](O)[C@H]1NC(C)=O)C(=O)N[C@@H](CCC(=O)O)C(=O)N[C@H](C(=O)N[C@@H](CCCCN)C(=O)N[C@@H](CCSC)C(=O)N[C@@H](CC(=O)O)C(=O)N[C@@H](C)C(=O)N[C@@H](CCC(=O)O)C(=O)N[C@@H](Cc1ccccc1)C(=O)N[C@@H](CCCNC(=N)N)C(=O)N[C@@H](Cc1c[nH]cn1)C(=O)N[C@@H](CC(=O)O)C(=O)N[C@@H](CO)C(=O)NCC(N)=O)C(C)C [compound 4] | 1.40 | 98.6
CC[C@H](C)[C@H](NC(=O)[C@@H](N)CCC(=O)O)C(=O)N[C@@H](CO)C(=O)N[C@@H](CCC(=O)O)C(=O)N[C@H](C(=O)N[C@@H](CC(N)=O)C(=O)N[C@@H](CC(C)C)C(=O)N[C@@H](CC(=O)O)C(=O)N[C@@H](C)C(=O)N[C@@H](CCC(=O)O)C(=O)N[C@@H](Cc1ccccc1)C(=O)N[C@@H](CCCNC(=N)N)C(=O)N[C@@H](Cc1c[nH]cn1)C(=O)N[C@@H](CC(=O)O)C(=O)N[C@@H](CO)C(=O)NCC(N)=O)C(C)C [compound 5] | 96.2 | 3.82
CC[C@H](C)[C@H](NC(=O)[C@@H](N)CCC(=O)O)C(=O)N[C@@H](CO[C@H]1O[C@H](CO)[C@H](O)[C@H](O)[C@H]1NC(C)=O)C(=O)N[C@@H](CCC(=O)O)C(=O)N[C@H](C(=O)N[C@@H](CC(N)=O)C(=O)N[C@@H](CC(C)C)C(=O)N[C@@H](CC(=O)O)C(=O)N[C@@H](C)C(=O)N[C@@H](CCC(=O)O)C(=O)N[C@@H](Cc1ccccc1)C(=O)N[C@@H](CCCNC(=N)N)C(=O)N[C@@H](Cc1c[nH]cn1)C(=O)N[C@@H](CC(=O)O)C(=O)N[C@@H](CO)C(=O)NCC(N)=O)C(C)C [compound 6] | 93.0 | 7.02
CC[C@H](C)[C@H](N)C(=O)N[C@@H](CCCCN)C(=O)N[C@H](C(=O)N[C@@H](CCC(=O)O)C(=O)N[C@@H](CCC(=O)O)C(=O)N[C@H](C(=O)N[C@@H](CO)C(=O)N[C@@H](CCC(=O)O)C(=O)N[C@H](C(=O)N[C@@H](CCCCN)C(=O)N[C@@H](CCSC)C(=O)N[C@@H](CC(=O)O)C(=O)N[C@@H](C)C(=O)N[C@@H](CCC(=O)O)C(=O)N[C@@H](Cc1ccccc1)C(=O)N[C@@H](CCCNC(=N)N)C(=O)N[C@@H](Cc1c[nH]cn1)C(=O)N[C@@H](CC(=O)O)C(=O)N[C@@H](CO)C(=O)NCC(N)=O)C(C)C)[C@@H](C)CC)[C@@H](C)O [compound 7] | 3.40 | 96.6
CC[C@H](C)[C@H](N)C(=O)N[C@@H](CCCCN)C(=O)N[C@H](C(=O)N[C@@H](CCC(=O)O)C(=O)N[C@@H](CCC(=O)O)C(=O)N[C@H](C(=O)N[C@@H](CO)C(=O)N[C@@H](CCC(=O)O)C(=O)N[C@H](C(=O)N[C@@H](CC(N)=O)C(=O)N[C@@H](CC(C)C)C(=O)N[C@@H](CC(=O)O)C(=O)N[C@@H](C)C(=O)N[C@@H](CCC(=O)O)C(=O)N[C@@H](Cc1ccccc1)C(=O)N[C@@H](CCCNC(=N)N)C(=O)N[C@@H](Cc1c[nH]cn1)C(=O)N[C@@H](CC(=O)O)C(=O)N[C@@H](CO)C(=O)NCC(N)=O)C(C)C)[C@@H](C)CC)[C@@H](C)O [compound 10] | 79.7 | 20.3
CC[C@H](C)[C@H](N)C(=O)N[C@@H](CCCCN)C(=O)N[C@H](C(=O)N[C@@H](CCC(=O)O)C(=O)N[C@@H](CCC(=O)O)C(=O)N[C@H](C(=O)N[C@@H](CO)C(=O)N[C@@H](CCC(=O)O)C(=O)N[C@H](C(=O)N[C@@H](CC(N)=O)C(=O)N[C@@H](CC(C)C)C(=O)N[C@@H](CC(=O)O)C(=O)N[C@@H](C)C(=O)N[C@@H](CCC(=O)O)C(=O)N[C@@H](Cc1ccccc1)C(=O)N[C@@H](CCCNC(=N)N)C(=O)N[C@@H](Cc1c[nH]cn1)C(=O)N[C@@H](CC(=O)O)C(=O)N[C@@H](CO)C(=O)NCC(N)=O)C(C)C)[C@@H](C)CC)[C@@H](C)O[C@H]1O[C@H](CO)[C@H](O)[C@H](O)[C@H]1NC(C)=O [compound 11] | 98.1 | 1.90
CC[C@H](C)[C@H](N)C(=O)N[C@@H](CCCCN)C(=O)N[C@H](C(=O)N[C@@H](CCC(=O)O)C(=O)N[C@@H](CCC(=O)O)C(=O)N[C@H](C(=O)N[C@@H](CO[C@H]1O[C@H](CO)[C@H](O)[C@H](O)[C@H]1NC(C)=O)C(=O)N[C@@H](CCC(=O)O)C(=O)N[C@H](C(=O)N[C@@H](CC(N)=O)C(=O)N[C@@H](CC(C)C)C(=O)N[C@@H](CC(=O)O)C(=O)N[C@@H](C)C(=O)N[C@@H](CCC(=O)O)C(=O)N[C@@H](Cc1ccccc1)C(=O)N[C@@H](CCCNC(=N)N)C(=O)N[C@@H](Cc1c[nH]cn1)C(=O)N[C@@H](CC(=O)O)C(=O)N[C@@H](CO)C(=O)NCC(N)=O)C(C)C)[C@@H](C)CC)[C@@H](C)O[C@H]1O[C@H](CO)[C@H](O)[C@H](O)[C@H]1NC(C)=O [compound 12] | 96.1 | 3.90
